{
  "source": "patent US6630178B1",
  "about": "“Composition comprising soy protein, dietary fibres and a phytoestrogen compound and use thereof in the prevention and/or treatment of cardiovascular diseases” (Nutri Pharma Asa, priority 1998, dated 2003)",
  "origin": "cited, not measured here",
  "tested_on": "estrogenic effect",
  "settings": "estradiol = 100; in vitro",
  "data": [
    {"smiles": "O=c1c(-c2ccc(O)cc2)coc2cc(O)ccc12", "note": "[daidzein]", "values": [
      {"measurement": "relative estrogenic potency as compared to estradiol", "result": 0.013}
    ]}
  ]
}
